Data reported in US20240299414A1, “SUBCUTANEOUS OR INTRAMUSCULAR INJECTION FORMULATIONS OF ILOPROST” (EICOS SCIENCES, INC., priority 2020, published 2024).

Test system: symptomatic Raynaud's Phenomenon attacks in subjects with Systemic Sclerosis
Test: Multicenter double-blind randomized placebo-controlled study of intravenous iloprost, efficacy by ePRO diary
Type: in vivo, human
Conditions: for Subgroup comparison of prior vs after, LS mean difference in change (SE) of treatment difference: randomized prior to vs after 3 Jun. 2019
Text: This was a multicenter, double-blind, randomized, placebo-controlled study to provide an initial evaluation of the effect of iloprost on the symptomatic relief of RP attacks in subjects with SSc. As a pilot study, it was not powered to provide a definitive estimate of the effect of iloprost. Importantly, this study tested the feasibility of collecting the study endpoints and logistics of study operations that included, among other things, an electronic patient-reported outcomes (ePRO) diary for the evaluation of subject response to the treatment, as well as the infusion workflow for this multiday treatment. Subjects were allowed to continue receiving stable standard of care therapies for the management of symptomatic RP (e.g., calcium channel blockers, angiotensin-converting enzyme inhibitors, statins, fluoxetine, and low-dose acetylsalicylic acid) or may have participated without the use of background standard of care therapies. The study consisted of an up to 30-day screening period during which subjects completed a daily ePRO diary to record information regarding all symptomatic RP attacks (e.g., severity of symptoms, duration, and hand function). […] The baseline ePRO diary completion period may have been extended beyond 10 days in order to accommodate the preferred Monday through Friday dosing schedule. The ePRO symptomatic RP attack data from this time period were used for the calculation of the baseline frequency of symptomatic RP attacks. […] Randomization was stratified based on the use of phosphodiesterase inhibitors at screening. Study drug administration began on Day 1, and subjects received study drug for 5 consecutive days (e.g., Monday through Friday) as an IV infusion over 6 hours each day via a peripheral line (NovaCath™ Integrated IV Catheter System) or a peripherally inserted central catheter using an infusion pump. […] On Day 1, study drug was initiated at a starting dose of 0.5 ng/kg/min, and dose increases occurred every 30 minutes (±5 minutes) in increments of 0.5 ng/kg/min up to 2.0 ng/kg/min or the individual tolerated dose. If dose-limiting adverse events (e.g., headache, flushing, jaw pain, myalgia, nausea, or vomiting) occurred that could not be tolerated by the subject, or if the subject experienced symptomatic hypotension, then the dose was reduced in a step-wise manner by 0.5 ng/kg/min every 30 minutes (±5 minutes) until a tolerated dose was determined or the infusion was stopped until the symptoms resolved at which point the study drug was reinitiated at a previously tolerated dose. If symptomatic hypotension or a dose-limiting adverse event occurred during administration of iloprost at the starting dose (i.e., 0.5 ng/kg/min), the infusion was reduced to 0.25 ng/kg/min. […] Blood pressure and heart rate were monitored 15 minutes (±5 minutes) prior to and after all dose changes. The maximum tolerated dose was maintained for the remaining 6-hour daily period. At the end of the 6-hour infusion period, the dose was stopped. Subjects were to be monitored for up to 1 hour after completion of study drug infusion (i.e., vital signs were obtained 15 minutes [+5 minutes] and 1 hour [+15 minutes] after completion of the infusion). […] Vital signs were measured prior to study drug administration and at 15 minutes (±5 minutes) prior to and after all dose changes during the infusion. Additionally, vital signs were monitored at 15 minutes (±5 minutes) and 1 hour (±15 minutes) after completion of the 6-hour infusion. Subjects were contacted via telephone on Day 8 to ensure they resumed completion of the daily ePRO diary; subjects completed the ePRO diary from Day 8 through Day 21. On Day 22, subjects returned to the clinic for post-treatment evaluations. A follow-up visit occurred 30 days after the last administration of study drug (Day 35). Symptomatic Raynaud's Phenomenon attacks: […] The attack was considered over when the color changed back to pre-attack color (normal) and the symptoms returned to the subject's pre-attack level. […]

[1] = baseline to double-blind endpoint
[2] = subgroup randomized after 3 Jun. 2019, N = 9
[3] = subgroup randomized prior to 3 Jun. 2019, n = 8

## CC#CCC(C)[C@H](O)/C=C/[C@@H]1[C@H]2C/C(=C/CCCC(=O)O)C[C@H]2C[C@H]1O (stereo partly drawn) [Iloprost, (5E)-5-[(3aS,4R,5R,6aS)-5-hydroxy-4-[(E,3S)-3-hydroxy-4-methyloct-1-en-6-ynyl]-3,3a,4,5,6,6a-hexahydro-1H-pentalen-2-ylidene]pentanoic acid]
11-point NRS
  Average overall severity of symptomatic RP attacks, LS mean difference in change vs placebo (SE): −0.47 (0.604)
11-point NRS, Days 8 to 21, N = 17
  Average overall severity of symptomatic RP attacks, Double-blind endpoint, Mean (SD): 3.39 (2.169)
11-point NRS, N = 17
  Change from baseline in average overall severity of symptomatic RP attacks, LS mean (SE): −2.12 (0.439)
11-point NRS, before treatment, N = 17
  Average overall severity of symptomatic RP attacks, Baseline, Mean (SD): 5.30 (1.818)
ANCOVA, baseline to double-blind endpoint, N = 17
  Change from baseline in weekly frequency of symptomatic RP attacks, LS mean (SE): −15.09 (2.961)
ANCOVA, iloprost vs placebo, N = 17 per group
  Weekly frequency of symptomatic RP attacks, LS mean difference in change vs placebo (SE): −0.77 (4.047)
Days 8 to 21, N = 17
  Average weekly duration of symptomatic RP attacks, Double-blind endpoint, Mean (SD): 345.82 (402.713) minutes
Days 8 to 21 after IV infusion 6 h/day for 5 days, up to 2.0 ng/kg/min, N = 17
  Weekly frequency of symptomatic RP attacks, Double-blind endpoint, Mean (SD): 23.57 (14.578)
N = 17
  Change from baseline in average weekly duration of symptomatic RP attacks, LS mean (SE): −267.49 (78.273) minutes
All analytical measures
  Difference in change in weekly frequency of symptomatic RP attacks compared to placebo, significance: not statistically significant
Baseline ePRO diary period (10 to 25 days) before treatment, N = 17
  Weekly frequency of symptomatic RP attacks, Baseline, Mean (SD): 37.05 (18.643)
[1]
  Change in average Raynaud's Condition Score, difference compared to placebo: not statistically significant
  Change in average worst symptoms (pain, numbness, tingling, discomfort) associated with symptomatic RP, difference compared to placebo: not statistically significant
  Subject assessment of overall improvement using PGI-S and PGI-C, difference compared to placebo: not statistically significant
Before treatment, N = 17
  Average weekly duration of symptomatic RP attacks, Baseline, Mean (SD): 586.97 (584.577) minutes
Iloprost vs placebo
  Average weekly duration of symptomatic RP attacks, LS mean difference in change vs placebo (SE): −83.89 (107.728) minutes
  Subgroup comparison of prior vs after, LS mean difference in change (SE) of treatment difference: −6.91 (8.121)
Listed as iloprost
  Subgroup comparison of prior vs after, LS mean difference in change (SE) of treatment difference: -6.91 (8.121)
Subgroup randomized after 3 Jun. 2019
  Weekly frequency of symptomatic RP attacks, LS mean difference in change vs placebo (SE): 2.04 (5.453)
[2]
  Change from baseline in weekly frequency of symptomatic RP attacks, LS mean (SE): −15.38 (4.082)
  Weekly frequency of symptomatic RP attacks, Double-blind endpoint, Mean (SD): 23.73 (17.337)
Subgroup randomized after 3 Jun. 2019, N = 9, before treatment
  Weekly frequency of symptomatic RP attacks, Baseline, Mean (SD): 37.23 (19.269)
Subgroup randomized prior to 3 Jun. 2019
  Weekly frequency of symptomatic RP attacks, LS mean difference in change vs placebo (SE): −4.87 (6.074)
Subgroup randomized prior to 3 Jun. 2019, listed as iloprost
  Weekly frequency of symptomatic RP attacks, LS mean difference in change vs placebo (SE): -4.87 (6.074)
[3]
  Change from baseline in weekly frequency of symptomatic RP attacks, LS mean (SE): −14.83 (4.180)
  Weekly frequency of symptomatic RP attacks, Double-blind endpoint, Mean (SD): 23.39 (11.923)
Subgroup randomized prior to 3 Jun. 2019, n = 8, before treatment
  Weekly frequency of symptomatic RP attacks, Baseline, Mean (SD): 36.85 (19.235)
